Test results taken from patent US5760036A, “Aminediol protease inhibitors” (E. R. Squibb & Sons, Inc., priority 1995, dated 1998).
Structures can show the parent of a compound that is named as a salt.

Target: T1, HIV protease (Human immunodeficiency virus type 1 group M subtype B, UniProt P04585)
T1 construct: and purified protease
Test: HIV Protease Assay
Type: biochemical
Details: 4% DMSO, 450 μM substrate, pH 5.5, 30 minutes at 37° C., RP-HPLC; for inhibition at 10 µM: pH 5.5, 10 μM inhibitor, read-out: HIV Protease % Inhibition at 10 μM; for HIV Protease % Inhibition at 10 μM: 10 μM inhibitor
Method: An HIV protease standard assay was performed in a 60 μl reaction medium containing 50 mM sodium acetate, pH 5.5, 100 μg/ml bovine serum albumen,450 μM substrate (H2 N-Val-Ser-Gln-Asn-(β-naphthyl-alanine)-Pro-Val-Ile-OH), and purified protease. The reaction medium was incubated for 30 minutes at 37° C., quenched by the addition of 140 μl 5% H3 PO4, then analyzed by reverse phase HPLC using UV220 detection. In a typical control assay, 7% of the substrate was hydrolyzed. Aminediol inhibitors of the present invention, listed in the following Table 1, were then employed in the assay, for which purpose they were prepared as a […] solution in DMSO, then diluted to 30 μM with 50 mM sodium acetate/bovine serum albumen. This working stock was then diluted three-fold into the protease reaction medium, for a final concentration of 10 μM inhibitor and 4% DMSO.

Row | SMILES | inhibition at 10 µM | HIV Protease % Inhibition at 10 μM
1 | CC(C)(C)OC(=O)N[C@@H](Cc1ccccc1)[C@H](O)CNC[C@@H](O)[C@H](Cc1ccccc1)NC(=O)OC1(C)CCCC1O (stereo partly drawn) [Compound 379, [1S-(1R*,2S*) (trans)]-[Iminobis[2-hydroxy-1-(phenylmethyl)-3,1-propanediyl]]bis[carbamic acid], 1,1-dimethylethyl 2-hydroxy-1-methylcyclopentyl ester] | 98% | –
2 | O=C(Cc1ccccc1)N[C@@H](Cc1ccccc1)[C@H](O)CNC[C@@H](O)[C@H](Cc1ccccc1)NC(=O)Cc1ccccc1 [Compound 83, [R-(R*,S*)]-N,N'-[Iminobis[2-hydroxy-1-(phenylmethyl)-3,1-propanediyl[bisbenzeneacetamide] | 19% | –
3 | CC(C)(C)OC(=O)N[C@@H](Cc1ccccc1)[C@H](O)CNC[C@@H](O)[C@H](Cc1ccccc1)NC(=O)C(=NO)C(C)(C)C [Compound 295, [1S-[1R*,2S*(2S*,3R*)]]-[2-Hydroxy-3-[[2-hydroxy-3-[[2-(hydroxyimino)-3,3-dimethyl-1-oxobutyl]amino]-4-phenylbutyl]amino]-1-(phenylmethyl)propyl]carbamic acid, 1,1-dimethylethyl ester] | 82% | –
4 | CCc1ccccc1CC(NC(=O)OC(C)(C)C)C(O)CNCC(O)C(Cc1ccccc1)NC(=O)OC(C)(C)C (stereo not drawn) [Compound 371] | 98% | –
5 | CC(C)(C)OC(=O)N[C@@H](Cc1ccccc1)[C@H](O)CNC[C@@H](O)[C@H](Cc1ccccc1)NC(=O)C(C)(C)CCO [Compound 291, [1S-[1R*,2S*(2S*,3R*)]]-[2-Hydroxy-3-[[2-hydroxy-3-[(4-hydroxy-2,2-dimethyl-1-oxobutyl)amino]-4-phenylbutyl]amino]-1-(phenylmethyl)propyl]carbamic acid, 1,1-dimethylethyl ester] | 73% | –
6 | CC(C)(C)OC(=O)N[C@@H](Cc1ccccc1)[C@H](O)CNC[C@@H](O)[C@H](Cc1ccccc1)NC(=O)C(OCc1ccccc1)C(C)(C)C (stereo partly drawn) [Compound 106, [1S-[1R*,2S* (2S*,3R*)]]-3-[[3-[[3,3-Dimethyl-1-oxo-2-(phenylmethoxy)butyl)butyl]amino]-2-hydroxy-4-phenylbutyl]amino]-2-hydroxy-1-(phenyl-methyl)propyl]carbamic acid, 1,1-dimethylethyl ester] | 71% | –
7 | CC(C)[C@H](NC(=O)OCc1ccccc1)C(=O)N[C@@H](Cc1ccccc1)[C@@H](O)CNC[C@H](O)[C@H](Cc1ccccc1)NC(=O)OC(C)(C)C [Compound 117, [S-[1R*,2R*(2R*,3R*)]]-N-[3-[[3-[[(1,1-Dimethylethoxy)carbonyl]amino]-2-hydroxy-4-phenylbutyl]amino]-2-hydroxy-1-(phenylmethyl)propyl]-N^2-[(phenylmethoxy)-carbonyl]-L-valinamide] | 14% | –
8 | CC(C)(C)OC(=O)N[C@@H](Cc1ccccc1)[C@H](O)CNC[C@@H](O)[C@H](Cc1ccccc1)NC(=O)COc1cccc2ccccc12 [Compound 63, [1S-[1R*,2S*(2S*,3R*)]]-[2-Hydroxy-3-[[2-hydroxy-3-[[(1-naphthalenyloxy)-acetyl]amino]-4-phenylbutyl]amino]-1-(phenyl-methyl)propyl]carbamic acid, 1,1-dimethylethyl ester] | 53% | –
9 | CC(C)(C)OC(=O)N[C@@H](Cc1ccccc1)[C@H](O)CNC[C@@H](O)[C@H](Cc1ccccc1)N1CC(C)(C)OC1=O [Compound 140, [1S-[1R*,2S*(2S*,3R*)]]-[3-[[3-(5,5-Dimethyl-2-oxo-3-oxazolidinyl)-2-hydroxy-4-phenylbutyl]amino]-2-hydroxy-1-(phenylmethyl)-propyl]carbamic acid, 1,1-dimethylethyl ester] | 61% | –
10 | CC(C)(C)OC(=O)N[C@@H](Cc1ccccc1)[C@H](O)CNC[C@@H](O)[C@H](Cc1ccccc1)NC(=O)C(O)(CO)C(C)(C)C (single isomer, unassigned; isomer b) [Compound 367, [1S-[1R*,2S*(2S*,3R*)]]-[3-[[3-[[2-Hydroxy-2-(hydroxymethyl)-3.3-dimethyl-l-oxobutyl]amino]-2-hydroxy-4-phenylbutyl]amino]-2-hydroxy-1-(phenylmethyl)propyl]carbamic acid. 1.1-dimethylethyl ester, isomer B] | – | 50%
11 | CC(C)(C)OC(=O)NCC(O)(CNC[C@@H](O)[C@H](Cc1ccccc1)NC(=O)OC(C)(C)C)Cc1ccccc1 (stereo partly drawn) [Compound 191, [1S-(1R*,2S*)]-[3-[[3-[[(1,1-Dimethylethoxy)carbonyl]amino]-2-hydroxy-2-(phenylmethyl)propyl]amino]-2-hydroxy-1-(phenylmethyl)propyl]carbamic acid, 1,1-dimethyl-ethyl ester] | 13% | –
12 | CN(Cc1ccccc1)C(=O)N[C@@H](Cc1ccccc1)[C@H](O)CNC[C@@H](O)[C@H](Cc1ccccc1)NC(=O)OC(C)(C)C [Compound 69, [1S-[1R*,2S*(2S*,3R*)]]-2-Hydrox3-[[2-hydroxy-3-[[[methyl(phenylmethyl)-amino]carbonyl]amino]-4-phenylbutyl]amino]-1-(phenylmethyl)propyl]carbamic acid, 1,1-dimethylethyl ester] | 11% | –
13 | CC(C)(C)OC(=O)NC[C@H](O)[C@@H](Cc1ccccc1)NC[C@@H](O)[C@H](Cc1ccccc1)NC(=O)OC(C)(C)C [Compound 187, [2S-[2R*,3S*(2S*,3R*)]]-[3-[[3-[[(1,1-Dimethylethoxy)carbonyl]amino]-2-hydroxy-4-phenylbutyl]amino]-2-hydroxy-4-phenylbutyl]carbamic acid, 1,1-dimethylethyl ester] | 28% | –
14 | CC(C)[C@H](NC(=O)OCc1ccccc1)C(=O)N[C@@H](Cc1ccccc1)[C@@H](O)CNC[C@H](O)[C@H](Cc1ccccc1)NC(=O)[C@@H](NC(=O)OCc1ccccc1)C(C)C [Compound 119, [S-(1R*,2R*)]-N,N'-[Iminobisr[2-hydroxy-1-(phenylmethyl)-3,1-propanediyl]]bis[N^2-[phenylmethyloxy)carbonyl]-L-valinamidel] | 10% | –
15 | CC(C)(C)OC(=O)N[C@@H](Cc1ccccc1)C(=O)CN(Cc1ccccc1)CC(O)[C@H](Cc1ccccc1)NC(=O)OC(C)(C)C (stereo partly drawn) [Compound 195, [1S-[1R*(3R*)]]-[3-[[3-[[(1,1-Dimethylethoxy)carbonyl]amino]-2-hydroxy-4-phenylbutyl]-(phenylmethyl)amino]-2-oxo-1-(phenylmethyl)propyl]-carbamic acid, 1,1-dimethylethyl ester] | 0% | –
16 | CC(C)(C)OC(=O)N[C@@H](Cc1ccccc1)[C@H](O)CNC[C@@H](O)[C@H](Cc1ccccc1)NC(=O)[C@@H]1CCCN1C(=O)OCc1ccccc1 [Compound 102, [S-[1R*,2S*(2S*,3R*)[]-N-[[[3-[[3-[[(1,1-Dimethylethoxy)carbonyl]amino]-2-hydroxy-4-phenylbutyl]amino]-2-hydroxy-1-(phenylmethyl)-propyl]-N^2-[phenylmethoxy)carbonyl]-L-prolinamide] | 47% | –
17 | CC(C)(C)OC(=O)N[C@@H](Cc1ccccc1)[C@H](O)CNC[C@@H](O)[C@H](Cc1ccccc1)NC(=O)C1(O)CCc2ccccc21 (single isomer, unassigned; isomer a) [Compound 375, [1S-[1R*,2S*(2S*, 3R*)]]-[3-[[3-]](2,3-Dihydro-1-hydroxy-1H-inden-1-yl)carbonyl]amino]-2-hydroxy-4-phenylbutyl]amino]-2-hydroxy-1-(phenylmethyl)-propyl]carbamic acid, 1,1-dimethylethyl ester, isomer A] | – | 98%
18 | COC(=O)NC(C)(C(=O)N[C@@H](Cc1ccccc1)[C@H](O)CNC[C@@H](O)[C@H](Cc1ccccc1)NC(=O)OC(C)(C)C)C(C)(C)C (single isomer, unassigned; isomer a) [Compound 373] | – | 85%
19 | CC(C)(C)OC(=O)N[C@@H](Cc1ccccc1)[C@H](O)CNC[C@@H](O)[C@H](Cc1ccccc1OCc1ccccc1)NC(=O)OC(C)(C)C [Compound 348, [1S-[1R*,2S*(2S*,3R*)]]-[3-[[(3-[[(1,1-Dimethylethoxy)carbonyl]amino]-2-hydroxy-4-[2-(phenylmethoxy)phenyl]butyl]amino]-2-hydroxy-1-(phenylmethyl)propyl]carbamic acid, 1,1-dimethylethyl ester] | 99% | –
20 | CC(C)(C)OC(=O)N[C@@H](Cc1ccccc1)[C@H](O)CNC[C@@H](O)[C@H](Cc1ccccc1)NC(=O)OC(C)(C)CCCN [Compound 180, [1S-(1R*,2S*)]-[Iminobis[2-hydroxy-1-(phenylmethyl)-3,1-propanediyl]biscarbamic acid, 4-amino-1,1-dimethylbutyl 1,1-dimethylethyl ester, fumarate (2:3) salt] | 73% | –
21 | CC(C)(C)OC(=O)N[C@@H](Cc1ccccc1)[C@H](O)CNC[C@@H](O)[C@H](Cc1ccccc1)NC(=O)C1NC(=O)CC1(C)C (single isomer, unassigned) [Compound 266, [1S-[1R*,2S*(2S*,3R*)]]-[3-[[3-[[(3,3-Dimethyl-5-oxo-2-pyrrolidinyl)carbonyl]amino]-2-hydroxy-4-phenylbutyl]amino]-2-hydroxy-1-(phenylmethyl)propyl]carbamic acid, 1,1-dimethylethyl ester] | – | 69%
